# Source: patent US20100047844A1, “DIAGNOSTIC MARKER FOR FABRY DISEASE” (Academisch Ziekenhuis bij de Universiteit van Amsterdam, priority 2006, published 2010)
# Entries after “also recorded” stand apart in the source; their conditions may differ.
# What was measured:
# [1] = biological target: T1, alpha-galactosidase A (Homo sapiens, UniProt P06280); experiment: Inhibition of alpha-galactosidase A by lyso-CTH; assay type: biochemical
# T1 sequence (P06280 32-429): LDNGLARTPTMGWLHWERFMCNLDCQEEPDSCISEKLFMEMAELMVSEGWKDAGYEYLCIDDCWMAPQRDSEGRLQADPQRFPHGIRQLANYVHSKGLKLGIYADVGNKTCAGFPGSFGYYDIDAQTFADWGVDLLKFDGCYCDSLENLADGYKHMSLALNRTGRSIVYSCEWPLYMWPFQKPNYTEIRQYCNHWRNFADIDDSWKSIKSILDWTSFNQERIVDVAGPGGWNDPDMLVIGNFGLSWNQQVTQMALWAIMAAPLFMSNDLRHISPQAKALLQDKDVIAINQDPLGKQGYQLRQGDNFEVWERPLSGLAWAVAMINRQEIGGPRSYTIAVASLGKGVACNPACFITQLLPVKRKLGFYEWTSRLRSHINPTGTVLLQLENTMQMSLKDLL
# [2] = biological target: T2, alpha-galactosidase B (Homo sapiens, UniProt P17050); experiment: Inhibition of alpha-galactosidase B by lyso-CTH; assay type: biochemical
# T2 sequence (P17050 18-411): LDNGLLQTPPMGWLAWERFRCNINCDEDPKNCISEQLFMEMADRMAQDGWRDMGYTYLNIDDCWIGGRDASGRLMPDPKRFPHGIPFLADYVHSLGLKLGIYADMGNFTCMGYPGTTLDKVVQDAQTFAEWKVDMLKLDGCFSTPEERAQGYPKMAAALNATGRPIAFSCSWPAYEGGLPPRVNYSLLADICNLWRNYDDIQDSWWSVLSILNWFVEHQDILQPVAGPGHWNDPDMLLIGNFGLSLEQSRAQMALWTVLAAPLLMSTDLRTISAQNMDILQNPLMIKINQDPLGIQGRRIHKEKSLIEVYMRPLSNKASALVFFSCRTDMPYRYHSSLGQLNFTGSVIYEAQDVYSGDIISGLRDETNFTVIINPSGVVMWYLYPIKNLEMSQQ
# [3] = system: SMC-41 cell line; experiment: In vitro toxicity: 3H thymidine incorporation and proliferation in SMC-41 cell line; assay type: cell-based; conditions: lyso-CTH 0.065-0.65 μM, as found in plasma of Fabry patients
# Method: The toxic effect of lyso-CTH was determined in vitro in SMC-41 cell line. ^3H thymidine incorporation (per 24 h) was determined as a function of lyso-CTH concentration.
# [4] = Partitioning of lyso-CTH in extraction from plasma samples; assay type: physicochemical
# Method: An optimal extraction procedure for lyso-CTH from plasma samples was established. A double extraction was carried out, first a Bligh and Dyer extraction followed by butanol extraction.
smiles,measurement,setting,value
"CCCCCCCCCCCCC/C=C/[C@@H](O)[C@@H](N)CO[C@@H]1O[C@H](CO)[C@@H](O[C@@H]2O[C@H](CO)[C@H](O[C@H]3O[C@H](CO)[C@H](O)[C@H](O)[C@H]3O)[C@H](O)[C@H]2O)[C@H](O)[C@H]1O [lyso-CTH, lyso-ceramide trihexosamide]",inhibition of alpha-galactosidase A,[1],potent inhibitor; also recorded: inhibits
same,inhibition of alpha-galactosidase B,[2],potent inhibitor; also recorded: inhibits
same,3H thymidine incorporation (per 24 h),[3],increased isotope incorporation
same,smooth muscle cell proliferation,[3],promote in vitro smooth muscle cell proliferation; also recorded: increased proliferation
same,"Partitioning of lyso-CTH (% of total), lower phase",[4]; Bligh and Dyer extraction,10 % of total
same,"Partitioning of lyso-CTH (% of total), upper phase",[4]; Bligh and Dyer extraction,90 % of total
same,"Partitioning of lyso-CTH (% of total), lower phase",[4]; butanol/water extraction,2 % of total
same,"Partitioning of lyso-CTH (% of total), upper phase",[4]; butanol/water extraction,99 % of total
